Laboratory results from PMC5396026 (Chemical Research in Toxicology, 2016).

biological target: T1, AR (Rattus norvegicus, UniProt P15207); assay: Literature review: AR transactivation assays, agonist mode; settings: reference classification from curated literature TA data (mean AC50)
T1 sequence (P15207 1-902): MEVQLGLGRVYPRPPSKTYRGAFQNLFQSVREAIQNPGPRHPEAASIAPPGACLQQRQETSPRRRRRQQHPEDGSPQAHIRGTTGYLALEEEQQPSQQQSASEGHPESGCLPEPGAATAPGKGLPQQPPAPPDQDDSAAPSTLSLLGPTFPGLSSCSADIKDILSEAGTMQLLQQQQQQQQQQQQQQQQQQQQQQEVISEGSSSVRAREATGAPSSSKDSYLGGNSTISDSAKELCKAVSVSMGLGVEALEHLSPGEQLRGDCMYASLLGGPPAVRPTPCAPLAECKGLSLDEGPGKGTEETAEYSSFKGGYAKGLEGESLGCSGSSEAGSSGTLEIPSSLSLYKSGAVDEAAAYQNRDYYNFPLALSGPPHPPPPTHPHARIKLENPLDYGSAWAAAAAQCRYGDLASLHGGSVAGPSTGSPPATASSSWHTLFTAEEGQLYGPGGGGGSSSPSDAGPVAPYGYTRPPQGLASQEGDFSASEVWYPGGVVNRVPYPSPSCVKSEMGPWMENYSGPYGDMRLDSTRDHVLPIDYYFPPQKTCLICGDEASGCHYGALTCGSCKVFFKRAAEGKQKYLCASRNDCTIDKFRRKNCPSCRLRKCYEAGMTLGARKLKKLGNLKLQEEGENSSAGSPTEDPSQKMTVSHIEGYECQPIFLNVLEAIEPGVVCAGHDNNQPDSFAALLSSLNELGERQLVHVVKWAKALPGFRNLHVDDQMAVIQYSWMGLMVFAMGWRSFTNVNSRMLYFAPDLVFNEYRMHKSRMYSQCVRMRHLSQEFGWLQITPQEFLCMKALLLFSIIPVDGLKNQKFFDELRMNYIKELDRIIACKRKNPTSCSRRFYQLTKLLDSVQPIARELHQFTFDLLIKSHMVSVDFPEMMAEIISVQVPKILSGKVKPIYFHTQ

| SMILES | agonist potency category |
| --- | --- |
| C[C@]12C=CC3=C4CCC(=O)C=C4CC[C@H]3[C@@H]1CC[C@@H]2O [17b-trenbolone] | strong (Strong: mean AC50 ≤ 0.1 μM) |
| C[C@]12CC[C@@H]3c4ccc(O)cc4C[C@@H](CCCCCCCCC[S+]([O-])CCCC(F)(F)C(F)(F)F)[C@H]3[C@@H]1CC[C@@H]2O (stereo partly drawn) [ICI 182,780] | negative |
| CCCCNC(=O)n1c(NC(=O)OC)nc2ccccc21 [benomyl] | negative |
| COC(=O)Nc1nc2ccccc2[nH]1 [carbendazim] | negative |
| CC1(C)[C@H](C(=O)O[C@H](C#N)c2cccc(Oc3ccccc3)c2)[C@@H]1C=C(Br)Br [deltamethrin] | negative |
| C[C@]1(O)CC[C@H]2[C@@H]3CCC4=CC(=O)CCC4=C3C=C[C@@]21C [methyltrienolone (R1881), methyltrienolone] | strong (Strong: mean AC50 ≤ 0.1 μM) |
| CC1(C)C(C=C(Cl)Cl)C1C(=O)OCc1cccc(Oc2ccccc2)c1 (stereo not drawn) [permethrin] | negative |
| Oc1ccc(/C=C/c2cc(O)cc(O)c2)cc1 [resveratrol] | negative |
| CC(C)=CC1C(C(=O)OCN2C(=O)C3=C(CCCC3)C2=O)C1(C)C (stereo not drawn) [tetramethrin] | negative |

tested on: AR pathway; assay: not given; settings: not given

| SMILES | AR pathway model AUC, Agonist (R1) |
| --- | --- |
| C[C@]12CC[C@@H]3c4ccc(O)cc4CC[C@H]3[C@@H]1CC[C@H]2O [17a-estradiol] | 0.67 |
| CC/C(=C(\c1ccccc1)c1ccc(OCCN(C)C)cc1)c1ccccc1 [tamoxifen] | 0.0335 |

same assay, conditions: agonist reference chemicals

| SMILES | AR pathway model agonist prediction against reference classification |
| --- | --- |
| C[C@]12CC[C@@H]3c4ccc(O)cc4CC[C@H]3[C@@H]1CC[C@H]2O [17a-estradiol] | false positive |

same assay, conditions: antagonist reference chemicals

| SMILES | AR pathway model antagonist prediction against reference classification |
| --- | --- |
| C[C@H]1CCCC(=O)CCC/C=C/c2cc(O)cc(O)c2C(=O)O1 [zearalenone] | false negative |

same assay, conditions: maximum of agonist or antagonist AUC

| SMILES | AR pathway model call |
| --- | --- |
| Oc1ccccc1-c1ccccc1 [2-phenylphenol] | negative (negative if the maximum was <0.001) |
| CNC(=O)Oc1cccc2ccccc12 [carbaryl] | negative (negative if the maximum was <0.001) |
| CCOP(=S)(OCC)Oc1cc(C)nc(C(C)C)n1 [diazinon] | negative (negative if the maximum was <0.001) |
| N#Cc1c(Cl)cccc1Cl [dichlobenil] | negative (negative if the maximum was <0.001) |
| CCc1cccc(C)c1N(C(=O)CCl)C(C)COC (stereo not drawn) [metolachlor] | negative (negative if the maximum was <0.001) |
| CCCCC(C#N)(Cn1cncn1)c1ccc(Cl)cc1 (stereo not drawn) [myclobutanil] | negative (negative if the maximum was <0.001) |
| COP(=S)(OC)SCN1C(=O)c2ccccc2C1=O [phosmet] | negative (negative if the maximum was <0.001) |

biological target: T2, AR (Homo sapiens, UniProt P10275); assay: not given; assay type: cell-based; settings: AC50 at 10 nM vs 0.5 nM R1881, 95% confidence intervals
T2 sequence (P10275 1-920): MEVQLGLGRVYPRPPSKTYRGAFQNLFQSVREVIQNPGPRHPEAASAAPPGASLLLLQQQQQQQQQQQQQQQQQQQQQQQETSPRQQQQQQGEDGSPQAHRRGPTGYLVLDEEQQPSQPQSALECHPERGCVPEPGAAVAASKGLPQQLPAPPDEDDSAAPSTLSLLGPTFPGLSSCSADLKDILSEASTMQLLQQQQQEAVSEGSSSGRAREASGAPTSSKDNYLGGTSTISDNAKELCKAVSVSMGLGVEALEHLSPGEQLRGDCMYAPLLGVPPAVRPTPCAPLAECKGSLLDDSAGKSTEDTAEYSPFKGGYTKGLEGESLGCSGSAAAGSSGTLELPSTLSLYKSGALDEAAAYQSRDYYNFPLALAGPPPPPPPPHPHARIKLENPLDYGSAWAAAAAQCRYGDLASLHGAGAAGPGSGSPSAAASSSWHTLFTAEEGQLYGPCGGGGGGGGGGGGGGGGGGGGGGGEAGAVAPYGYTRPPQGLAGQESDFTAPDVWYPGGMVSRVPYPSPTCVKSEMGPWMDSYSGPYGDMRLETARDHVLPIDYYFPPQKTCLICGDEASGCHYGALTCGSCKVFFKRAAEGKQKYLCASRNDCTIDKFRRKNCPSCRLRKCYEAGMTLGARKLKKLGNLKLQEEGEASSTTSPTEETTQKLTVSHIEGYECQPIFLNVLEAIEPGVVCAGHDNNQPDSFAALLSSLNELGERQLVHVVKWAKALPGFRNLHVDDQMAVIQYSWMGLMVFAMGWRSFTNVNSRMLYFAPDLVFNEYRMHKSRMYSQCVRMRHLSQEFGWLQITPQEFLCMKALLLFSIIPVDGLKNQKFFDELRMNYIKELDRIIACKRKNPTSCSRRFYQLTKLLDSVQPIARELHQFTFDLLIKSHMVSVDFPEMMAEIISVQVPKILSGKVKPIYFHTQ

| SMILES | potency shift in antagonist confirmation assay |
| --- | --- |
| CCN=C1C=CC(=C(c2ccc(N(CC)CC)cc2)c2ccc(N(CC)CC)cc2)c2ccccc21.Cl [basic blue 7] | flagged for a lack of a potency shift |
| CC[C@H](c1ccc(O)cc1)[C@@H](CC)c1ccc(O)cc1 [meso-hexestrol] | shift in the correct direction but with overlapping confidence intervals |
| CC/N=c1\cc2oc3cc(NCC)c(C)cc3c(-c3ccccc3C(=O)OCC)c-2cc1C [rhodamine 6G] | flagged for a lack of a potency shift |
| C[C@H]1CCCC(=O)CCC/C=C/c2cc(O)cc(O)c2C(=O)O1 [zearalenone] | active in both screens and exhibited a potency shift in the expected direction |

tested on: cytotoxicity; assay: not given; assay type: cell-based; settings: distance of AR assay logAC50 from median cytotoxicity logAC50; high = >3

| SMILES | average Z-score |
| --- | --- |
| O=c1cc(-c2ccc(O)cc2)oc2cc(O)cc(O)c12 [apigenin] | high |
| CC(C)(O)C(=O)Nc1ccc([N+](=O)[O-])c(C(F)(F)F)c1 [hydroxyflutamide] | high |
| CON(C)C(=O)Nc1ccc(Cl)c(Cl)c1 [linuron] | high |
| CC1(C)NC(=O)N(c2ccc([N+](=O)[O-])c(C(F)(F)F)c2)C1=O [nilutamide] | high |
| CC(=O)S[C@@H]1CC2=CC(=O)CC[C@]2(C)[C@H]2CC[C@@]3(C)[C@@H](CC[C@@]34CCC(=O)O4)[C@H]12 [spironolactone] | high |
| C=CC1(C)OC(=O)N(c2cc(Cl)cc(Cl)c2)C1=O (stereo not drawn) [vinclozolin] | high |
